Assay results as given in PMC13114161 (Antibiotics, 2026).
Read-outs that look alike come from different tables or passages of the source. Peptide text beside a SMILES is read from it. * marks the point of attachment. βNA = c1ccc2cc(N*)ccc2c1

What was measured:
Format in all cases: cell-based, Pseudomonas aeruginosa
[1] = test system: P. aeruginosa ATCC 27853 ompH mutants EPIR32, EPIR36, EPIR38; assay: microbe, parasite or virus in culture
Experimental: (§1) MIC assays for potentiation of antimicrobial activity against P. aeruginosa were performed as described previously.

P. aeruginosa ATCC 27853 = assay: MIC and levofloxacin potentiation (broth microdilution); conditions: for LVX MIC (+EPI): levofloxacin MIC with EPI at […]
Experimental: Once synthesized, the three fluorinated EPI analogs (TXA11114, TXA11164 and TXA12027) were first assayed for their antibacterial activities against P. aeruginosa ATCC 27853. They had MICs of 100, >200 and 100 µg/mL, respectively (Table 1). […] Particularly, the inactivity of TXA11164 was surprising as the pKa values of both the amines are similar to that in TXA11114.
as §1

P. aeruginosa = assay: MIC potentiation of antimicrobial agents by EPIs; conditions: for Fold difference of antibiotic MIC + TXA01182 / MIC of antibiotic + TXA01182: TXA01182 at […]; for Fold difference of antibiotic MIC + TXA09155 / MIC of antibiotic + TXA09155: TXA09155 at […]; for Fold difference of antibiotic MIC + TXA11114 / MIC of antibiotic + TXA11114: TXA11114 at […];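 on Fold difference of antibiotic MIC + TXA01182: TXA01182 tested at 6.25 µg/mL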;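 on Fold difference of antibiotic MIC + TXA09155: TXA09155 tested at 6.25 µg/mL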; on Fold difference of antibiotic MIC + TXA11114: TXA11114 at 6.25 µg/mL;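 on MIC of antibiotic + TXA01182: TXA01182 tested at 6.25 µg/mL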;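 on MIC of antibiotic + TXA09155: TXA09155 tested at 6.25 µg/mL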; on MIC of antibiotic + TXA11114: TXA11114 at 6.25 µg/mL
Experimental: In contrast, the activities of gentamicin and imipenem were unchanged in the presence of TXA11114 under the conditions tested. Although gentamicin can be transported by the MexXY efflux system, the absence of potentiation in this assay is not sufficient to draw conclusions regarding MexXY inhibition or overall efflux specificity.
as §1

[2] = test system: multidrug-resistant P. aeruginosa clinical isolates from the CDC-FDA; assay: Levofloxacin MIC potentiation, CDC-FDA isolates; conditions: for Levofloxacin MIC fold difference, +EPI / Levofloxacin MIC, +EPI: EPI […] (TXA11114, TXA09155) or 50 μg/mL (MC-04,124, PAβN); for Share of CDC isolates with levofloxacin MIC reduced ≥8-fold (potentiated): TXA11114 […], PAβN and MC-04,124 50 µg/mL
Experimental: In a comparative study, the levofloxacin-potentiating activity of TXA11114 was evaluated alongside the well-characterized EPIs PAβN and MC-04,124 using P. aeruginosa clinical isolates obtained from the CDC and FDA Antimicrobial Resistance Isolate Bank and the Walter Reed Army Institute of Research (WRAIR). […] While PAβN has been widely studied in laboratory strains, its activity against the CDC/FDA P. aeruginosa panel has been reported only sparingly, limiting direct cross-study comparisons.
as §1

[3] = Pseudomonas aeruginosa, ATCC27853, EPIR32
[4] = Pseudomonas aeruginosa, ATCC27853, EPIR36
[5] = Pseudomonas aeruginosa, ATCC27853, EPIR38
[6] = Pseudomonas aeruginosa, ATCC27853, ATCC 27853 parent strain (Table S1), read-out: MIC
[7] = ATCC 27853 parent strain (Table S1)
[8] = Pseudomonas aeruginosa, ATCC27853, EPI alone, ATCC 27853, read-out: EPI MIC

NCC[C@H](O)C(=O)N[C@@H]1C[C@H](N)[C@@H](O[C@H]2O[C@H](CN)[C@@H](O)[C@H](O)[C@H]2O)[C@H](O)[C@H]1O[C@H]1O[C@H](CO)[C@@H](O)[C@H](N)[C@H]1O [AMK, amikacin]
MIC [1, 3]: 2 µg/mL
MIC [1, 4]: 1 µg/mL
MIC [1, 5]: 4 µg/mL
MIC (P. aeruginosa ATCC 27853; [6]): 8 µg/mL

CC[C@H]1OC(=O)[C@H](C)[C@@H](O[C@H]2C[C@@](C)(OC)[C@@H](O)[C@H](C)O2)[C@H](C)[C@@H](O[C@@H]2O[C@H](C)C[C@H](N(C)C)[C@H]2O)[C@](C)(O)C[C@@H](C)CN(C)[C@H](C)[C@@H](O)[C@]1(C)O [AZM, azithromycin]
MIC [1, 3]: 32 µg/mL
MIC [1, 4]: 16 µg/mL
MIC [1, 5]: 64 µg/mL
MIC (P. aeruginosa ATCC 27853; [7]): 64 µg/mL

C[C@H]1[C@H](NC(=O)/C(=N\OC(C)(C)C(=O)O)c2csc(N)n2)C(=O)N1S(=O)(=O)O [Aztreonam]
Fold difference of antibiotic MIC + TXA01182 (P. aeruginosa): 4 fold
MIC of antibiotic + TXA01182 (P. aeruginosa): 2 µg/mL
Fold difference of antibiotic MIC + TXA09155 (P. aeruginosa): 4 fold
MIC of antibiotic + TXA09155 (P. aeruginosa): 2 µg/mL
Fold difference of antibiotic MIC + TXA11114 (P. aeruginosa): 2 fold

CO/N=C(\C(=O)N[C@@H]1C(=O)N2C(C(=O)[O-])=C(C[n+]3cccc4c3CCC4)CS[C@H]12)c1csc(N)n1 [Cefpirome]
Fold difference of antibiotic MIC + TXA01182 (P. aeruginosa): 2 fold
Fold difference of antibiotic MIC + TXA09155 (P. aeruginosa): 8 fold
MIC of antibiotic + TXA09155 (P. aeruginosa): 1 µg/mL
Fold difference of antibiotic MIC + TXA11114 (P. aeruginosa): 4 fold
MIC of antibiotic + TXA11114 (P. aeruginosa): 2 µg/mL

CC(C)(O/N=C(\C(=O)N[C@@H]1C(=O)N2C(C(=O)[O-])=C(C[n+]3ccccc3)CS[C@H]12)c1csc(N)n1)C(=O)O [Ceftazidime, ceftazidime]
MIC [1, 3]: 0.25 µg/mL
MIC [1, 5]: 2 µg/mL
MIC of antibiotic + TXA01182 (P. aeruginosa): 1 µg/mL
MIC of antibiotic + TXA11114 (P. aeruginosa): 0.5 µg/mL
MIC (P. aeruginosa ATCC 27853; [7]): 2 µg/mL

Nc1nc(/C(=N/O)C(=O)N[C@@H]2C(=O)N3C(C(=O)O)=C(/C=C4\CCN([C@@H]5CCNC5)C4=O)CS[C@H]23)ns1 [Ceftobiprole]
Fold difference of antibiotic MIC + TXA01182 (P. aeruginosa): 1 fold
MIC of antibiotic + TXA01182 (P. aeruginosa): 8 µg/mL
Fold difference of antibiotic MIC + TXA09155 (P. aeruginosa): 8 fold
MIC of antibiotic + TXA09155 (P. aeruginosa): 1 µg/mL
Fold difference of antibiotic MIC + TXA11114 (P. aeruginosa): 4 fold
MIC of antibiotic + TXA11114 (P. aeruginosa): 2 µg/mL

C[C@H]1c2cccc(O)c2C(=O)C2=C(O)[C@]3(O)C(=O)C(C(N)=O)=C(O)[C@@H](N(C)C)[C@@H]3[C@@H](O)[C@@H]21 [Doxycycline, doxycycline]
MIC of antibiotic + TXA01182 (P. aeruginosa): 2 µg/mL
MIC of antibiotic + TXA09155 (P. aeruginosa): 1 µg/mL
MIC of antibiotic + TXA11114 (P. aeruginosa): 4 µg/mL
MIC (P. aeruginosa ATCC 27853; [6]): 32 µg/mL

CNC(C)C1CCC(N)C(OC2C(N)CC(N)C(OC3OCC(C)(O)C(NC)C3O)C2O)O1 (centres unmarked) [Gentamicin]
Fold difference of antibiotic MIC + TXA01182 (P. aeruginosa): 1 fold
MIC of antibiotic + TXA01182 (P. aeruginosa): 2 µg/mL
Fold difference of antibiotic MIC + TXA09155 (P. aeruginosa): 1 fold
MIC of antibiotic + TXA09155 (P. aeruginosa): 2 µg/mL
Fold difference of antibiotic MIC + TXA11114 (P. aeruginosa): 1 fold
MIC of antibiotic + TXA11114 (P. aeruginosa): 2 µg/mL
Fold difference of antibiotic MIC + TXA11114 (P. aeruginosa; listed as gentamicin): unchanged

NCC1CNC(C(=O)NC(CCc2ccccc2)C(=O)Nc2ccc3ncccc3c2)C1 (centres unmarked) [MC-04,124]
Levofloxacin MIC fold difference, +EPI ([2]; AR-0229): 1 fold
Levofloxacin MIC, +EPI ([2]; AR-0229): 64 µg/mL
Levofloxacin MIC fold difference, +EPI ([2]; AR-0232): 1 fold
Levofloxacin MIC, +EPI ([2]; AR-0232): 8 µg/mL
Levofloxacin MIC fold difference, +EPI ([2]; AR-0233): 1 fold
Levofloxacin MIC, +EPI ([2]; AR-0233): 4 µg/mL
Levofloxacin MIC fold difference, +EPI ([2]; AR-0234): 1 fold
Levofloxacin MIC, +EPI ([2]; AR-0234): 8 µg/mL
Levofloxacin MIC fold difference, +EPI ([2]; AR-0239): 1 fold
Levofloxacin MIC, +EPI ([2]; AR-0239): 64 µg/mL
Levofloxacin MIC fold difference, +EPI ([2]; AR-0242): 2 fold
Levofloxacin MIC, +EPI ([2]; AR-0242): 4 µg/mL
Levofloxacin MIC fold difference, +EPI ([2]; AR-0244): 1 fold
Levofloxacin MIC fold difference, +EPI ([2]; AR-0246): 1 fold
Levofloxacin MIC, +EPI ([2]; AR-0246): 64 µg/mL
Levofloxacin MIC fold difference, +EPI ([2]; AR-0248): 1 fold
Levofloxacin MIC, +EPI ([2]; AR-0248): 16 µg/mL
Levofloxacin MIC fold difference, +EPI ([2]; AR-0249): 1 fold
Levofloxacin MIC, +EPI ([2]; AR-0249): 64 µg/mL
Levofloxacin MIC fold difference, +EPI ([2]; AR-0252): 1 fold
Levofloxacin MIC, +EPI ([2]; AR-0252): 32 µg/mL
Levofloxacin MIC fold difference, +EPI ([2]; AR-0253): 1 fold
Levofloxacin MIC, +EPI ([2]; AR-0253): 2 µg/mL
Levofloxacin MIC fold difference, +EPI ([2]; AR-0264): 1 fold
Levofloxacin MIC, +EPI ([2]; AR-0264): 64 µg/mL
Share of CDC isolates with levofloxacin MIC reduced ≥8-fold (potentiated) [2]: minimal MIC shifts

C[C@@H](O)[C@H]1C(=O)N2C(C(=O)O)=C(S[C@@H]3CN[C@H](C(=O)N(C)C)C3)[C@H](C)[C@H]12 [MEM, meropenem]
MIC [1, 3]: 0.125 µg/mL
MIC [1, 4]: 0.125 µg/mL
MIC [1, 5]: 0.5 µg/mL
MIC (P. aeruginosa ATCC 27853; [6]): 1 µg/mL

NC(N)=NCCC[C@H](NC(=O)[C@@H](N)Cc1ccccc1)C(=O)Nc1ccc2ccccc2c1 [PAβN, phenylalanine-arginine β-naphthylamide] (H-Phe-Arg-βNA)
Levofloxacin MIC fold difference, +EPI ([2]; AR-0229): 1 fold
Levofloxacin MIC, +EPI ([2]; AR-0229): 64 µg/mL
Levofloxacin MIC fold difference, +EPI ([2]; AR-0232): 16 fold
Levofloxacin MIC, +EPI ([2]; AR-0232): 0.5 µg/mL
Levofloxacin MIC fold difference, +EPI ([2]; AR-0233): 1 fold
Levofloxacin MIC, +EPI ([2]; AR-0233): 4 µg/mL
Levofloxacin MIC fold difference, +EPI ([2]; AR-0234): 16 fold
Levofloxacin MIC, +EPI ([2]; AR-0234): 0.5 µg/mL
Levofloxacin MIC fold difference, +EPI ([2]; AR-0239): 8, (8) fold
Levofloxacin MIC, +EPI ([2]; AR-0239): 8, (8) μg/mL
Levofloxacin MIC, +EPI ([2]; AR-0242): 0.5 µg/mL
Levofloxacin MIC fold difference, +EPI ([2]; AR-0244): 1 fold
Levofloxacin MIC fold difference, +EPI ([2]; AR-0246): 1 fold
Levofloxacin MIC, +EPI ([2]; AR-0246): 64 µg/mL
Levofloxacin MIC fold difference, +EPI ([2]; AR-0248): 1 fold
Levofloxacin MIC, +EPI ([2]; AR-0248): 16 µg/mL
Levofloxacin MIC fold difference, +EPI ([2]; AR-0249): 8, (8) fold
Levofloxacin MIC, +EPI ([2]; AR-0249): 8, (8) μg/mL
Levofloxacin MIC fold difference, +EPI ([2]; AR-0252): 32 fold
Levofloxacin MIC, +EPI ([2]; AR-0252): 1 µg/mL
Levofloxacin MIC fold difference, +EPI ([2]; AR-0253): 64 fold
Levofloxacin MIC, +EPI ([2]; AR-0253): 0.031 µg/mL
Levofloxacin MIC fold difference, +EPI ([2]; AR-0264): 1 fold
Levofloxacin MIC, +EPI ([2]; AR-0264): 64 µg/mL
Share of CDC isolates with levofloxacin MIC reduced ≥8-fold (potentiated) [2]: ~ 54%

CN(C)c1cc(NC(=O)CNC(C)(C)C)c(O)c2c1C[C@H]1C[C@H]3[C@H](N(C)C)C(O)=C(C(N)=O)C(=O)[C@@]3(O)C(O)=C1C2=O [TGC, tigecycline]
MIC [1, 3]: 2 µg/mL
MIC [1, 4]: 2 µg/mL
MIC [1, 5]: 8 µg/mL
MIC (P. aeruginosa ATCC 27853; [7]): 8 µg/mL

NCCC(F)[C@@H](N)CNC(=O)c1cc2ccc(-c3ccc(F)cc3)cc2[nH]1 (stereo partly drawn) [TXA11164, N-((2S)-2,5-diamino-3-fluoropentyl)-6-(4-fluorophenyl)-1H-indole-2-carboxamide]
EPI MIC (P. aeruginosa ATCC 27853; EPI alone, ATCC 27853): >200 µg/mL
Fold MIC reduction [LVX/EPI-LVX] (P. aeruginosa ATCC 27853; EPI at […], ATCC 27853, listed as TXA11167): lacked potentiation activity
MIC (P. aeruginosa ATCC 27853; [8]): > 200 µg/mL
LVX MIC (+EPI) (P. aeruginosa ATCC 27853; ATCC 27853): 1 µg/mL

NCC(F)(F)C[C@@H](N)CNC(=O)c1cc2ccc(-c3ccc(F)cc3)cc2[nH]1 [TXA12027, (R)-N-(2,5-diamino-4,4-difluoropentyl)-6-(4-fluorophenyl)-1H-indole-2-carboxamide]
MIC (P. aeruginosa ATCC 27853; [8]): 100 µg/mL
LVX MIC (+EPI) (P. aeruginosa ATCC 27853; ATCC 27853): 1 µg/mL

Cotrimoxazole
MIC of antibiotic, No EPI (P. aeruginosa): 256 µg/mL
Fold difference of antibiotic MIC + TXA01182 (P. aeruginosa): 16, (>16) fold
MIC of antibiotic + TXA01182 (P. aeruginosa): 16, (>16) μg/mL
Fold difference of antibiotic MIC + TXA09155 (P. aeruginosa): 32 fold
MIC of antibiotic + TXA09155 (P. aeruginosa): 8 µg/mL
Fold difference of antibiotic MIC + TXA11114 (P. aeruginosa): 8 fold
MIC of antibiotic + TXA11114 (P. aeruginosa): 32 µg/mL

polymyxin B [PMB]
MIC ([1]; EPIR32): 4 µg/mL
MIC ([1]; EPIR36): 4 µg/mL
MIC ([1]; EPIR38): 4 µg/mL
MIC (P. aeruginosa ATCC 27853; [7]): 2 µg/mL
